Key:
[1] = molecular target: T1, HA1 adenosine receptor (Homo sapiens, UniProt P30542); experiment: Human adenosine A1 receptor affinity (Ki hA1); format: binding; conditions: affinity to human adenosine A1 receptor
T1 sequence (P30542 1-326): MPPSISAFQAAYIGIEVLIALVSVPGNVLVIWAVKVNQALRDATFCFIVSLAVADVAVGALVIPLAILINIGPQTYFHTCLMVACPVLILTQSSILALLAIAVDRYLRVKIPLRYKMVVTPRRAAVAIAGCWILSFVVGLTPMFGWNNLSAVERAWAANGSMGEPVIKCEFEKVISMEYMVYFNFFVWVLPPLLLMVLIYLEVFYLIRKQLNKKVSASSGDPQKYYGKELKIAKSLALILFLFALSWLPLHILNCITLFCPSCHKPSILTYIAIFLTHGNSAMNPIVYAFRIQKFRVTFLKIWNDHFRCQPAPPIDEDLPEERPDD

[2] = molecular target: T2, human adenosine A2A receptor (Homo sapiens, UniProt P29274); experiment: Human adenosine A2A receptor [3H]-SCH-58261 binding assay; conditions: for Ki: affinity to human adenosine A2A receptor, read-out: Ki HA2A; for selectivity (A1/A2a): calculated ratio of the affinity to the HA1 receptor to the HA2a receptor
T2 construct: expressed in transfected cells; host or cells: CHO cells, Semliki Forest virus expression system; membrane preparation
T2 sequence (P29274 whole entry): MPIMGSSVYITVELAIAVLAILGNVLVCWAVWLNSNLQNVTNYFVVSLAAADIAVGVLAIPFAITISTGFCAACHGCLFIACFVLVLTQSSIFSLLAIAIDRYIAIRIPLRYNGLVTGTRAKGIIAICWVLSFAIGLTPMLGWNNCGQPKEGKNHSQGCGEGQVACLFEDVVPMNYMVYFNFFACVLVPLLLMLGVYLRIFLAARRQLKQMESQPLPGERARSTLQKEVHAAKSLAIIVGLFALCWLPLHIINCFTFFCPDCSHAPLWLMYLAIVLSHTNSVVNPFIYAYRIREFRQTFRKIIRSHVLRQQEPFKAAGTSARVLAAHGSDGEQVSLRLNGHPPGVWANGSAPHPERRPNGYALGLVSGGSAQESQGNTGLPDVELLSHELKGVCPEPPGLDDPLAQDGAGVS

Row | SMILES | Ki [1] | Ki [2] | selectivity (A1/A2a) [2]
1 | Nc1cc(C(=O)N2CCCC2)cc2nc(-c3ccccc3O)nn12 [Example 118, [5-Amino-2-(2-hydroxy-phenyl)-[1,2,4]triazolo[1,5-a]pyridin-7-yl]-pyrrolidin-1-yl-methanone] | 1960 nM | 126 nM | 15.5
2 | CC(C)N(Cc1ccccc1)C(=O)c1cc(N)n2nc(-c3ccccc3O)nc2c1 [Example 121, 5-Amino-2-(2-hydroxy-phenyl)-[1,2,4]triazolo[1,5-a]pyridine-7-carboxylic acid benzyl-isopropyl-amide] | 204 nM | 17 nM | 12.0
3 | CCN(CC)C(=O)c1cc(N)n2nc(-c3cccs3)nc2c1 [Example 127, 5-Amino-2-thiophen-2-yl-[1,2,4]triazolo[1,5-a]pyridine-7-carboxylic acid diethylamide] | 1970 nM | 104 nM | 18.9
4 | Nc1cc(C(=O)N2CCCCC2)cc2nc(-c3cccs3)nn12 [Example 129, (5-Amino-2-thiophen-2-yl-[1,2,4]triazolo[1,5-a]pyridin-7-yl)-piperidin-1-yl-methanone] | 1460 nM | 101 nM | 14.5
5 | CCCCNC(=O)c1cc(N)n2nc(-c3ccc(Br)o3)nc2c1 [Example 131, 5-Amino-2-(5-bromo-furan-2-yl)-[1,2,4]triazolo[1,5-a]pyridine-7-carboxylic acid butylamide] | 345 nM | 19.4 nM | 17.8
6 | Nc1cc(C(=O)N2CCOCC2)cc2nc(-c3ccc(Br)o3)nn12 [Example 132, [5-Amino-2-(5-bromo-furan-2-yl)-[1,2,4]triazolo[1,5-a]pyridin-7-yl]-morpholin-4-yl-methanone] | 767 nM | 33.8 nM | 22.7
7 | Cn1cccc1-c1nc2cc(C(=O)N3CCCC3)cc(N)n2n1 [Example 134, [5-Amino-2-(1-methyl-1H-pyrrol-2-yl)-[1,2,4]triazolo[1,5-a]pyridin-7-yl]-pyrrolidin-1-yl-methanone] | 2680 nM | 287 nM | 9.3
8 | CC(C)N(Cc1ccccc1)C(=O)c1cc(N)n2nc(-c3cccn3C)nc2c1 [Example 135, 5-Amino-2-(1-methyl-1H-pyrrol-2-yl)-[1,2,4]triazolo[1,5-a]pyridine-7-carboxylic acid benzyl-isopropyl-amide] | 1820 nM | 166 nM | 10.9
9 | CC(C)N(Cc1ccccc1)C(=O)c1cc(N)n2nc(-c3ccco3)nc2c1 [Example 136, 5-Amino-2-furan-2-yl-[1,2,4]triazolo[1,5-a]pyridine-7-carboxylic acid benzyl-isopropyl-amide] | 222 nM | 12 nM | 18.5
10 | CCCCNC(=O)c1cc(N)n2nc(-c3ccc(C)o3)nc2c1 [Example 137, 5-Amino-2-(5-methyl-furan-2-yl)-[1,2,4]triazolo[1,5-a]pyridine-7-carboxylic acid butylamide] | 218 nM | 11 nM | 19.8
11 | Cc1ccc(-c2nc3cc(C(=O)NC4CCCCC4)cc(N)n3n2)o1 [Example 138, 5-Amino-2-(5-methyl-furan-2-yl)-[1,2,4]triazolo[1,5-a]pyridine-7-carboxylic acid cyclohexylamide] | 1270 nM | 123 nM | 10.3
12 | Cc1ccc(-c2nc3cc(C(=O)N4CCOCC4)cc(N)n3n2)o1 [Example 139, [5-Amino-2-(5-methyl-furan-2-yl)-[1,2,4]triazolo[1,5-a]pyridin-7-yl]-morpholin-4-yl-methanone] | 1750 nM | 74.5 nM | 23.5
13 | Cc1ccc(-c2nc3cc(C(=O)N(Cc4ccccc4)C(C)C)cc(N)n3n2)o1 [Example 141, 5-Amino-2-(5-methyl-furan-2-yl)-[1,2,4]triazolo[1,5-a]pyridine-7-carboxylic acid benzyl-isopropyl-amide] | 123 nM | 5.9 nM | 20.8
14 | CCN(C(=O)c1cc(N)n2nc(-c3sccc3C)nc2c1)C(C)C [Example 143, 5-Amino-2-(3-methyl-thiophen-2-yl)-[1,2,4]triazolo[1,5-a]pyridine-7-carboxylic acid ethyl-isopropyl-amide] | 1090 nM | 121 nM | 9.0
15 | Nc1cc(C(=O)NC2CCCCC2)cc2nc(-c3ccccc3)nn12 [Example 147, 5-Amino-2-phenyl-[1,2,4]triazolo[1,5-a]pyridine-7-carboxylic acid cyclohexylamide] | 453 nM | 140 nM | 3.2

Further lines, results first:

Row | Ki [1] | Ki [2] | selectivity (A1/A2a) [2] | SMILES
16 | 178 nM | 9.2 nM | 19.2 | Cc1ccc(-c2nc3cc(C(=O)N(Cc4ccccc4)C(C)C)cc(N)n3n2)s1 [Example 117, 5-Amino-2-(5-methyl-thiophen-2-yl)-[1,2,4]triazolo[1,5-a]pyridine-7-carboxylic acid benzyl-isopropyl-amide]
17 | 429 nM | 17.1 nM | 25.0 | CCCCNC(=O)c1cc(N)n2nc(-c3nccs3)nc2c1 [Example 119, 5-Amino-2-thiazol-2-yl-[1,2,4]triazolo[1,5-a]pyridine-7-carboxylic acid butylamide]
18 | 2740 nM | 77.4 nM | 35.4 | CCN(CC)C(=O)c1cc(N)n2nc(-c3nccs3)nc2c1 [Example 120, 5-Amino-2-thiazol-2-yl-[1,2,4]triazolo[1,5-a]pyridine-7-carboxylic acid diethylamide]
19 | 3320 nM | 317 nM | 10.5 | CC(C)N(C(=O)c1cc(N)n2nc(-c3nccs3)nc2c1)C(C)C [Example 122, 5-Amino-2-thiazol-2-yl-[1,2,4]triazolo[1,5-a]pyridine-7-carboxylic acid diisopropylamide]
20 | 698 nM | 43.5 nM | 16.0 | Nc1cc(C(=O)NC2CCCCC2)cc2nc(-c3nccs3)nn12 [Example 123, 5-Amino-2-thiazol-2-yl-[1,2,4]triazolo[1,5-a]pyridine-7-carboxylic acid cyclohexylamide]
21 | 1510 nM | 99.2 nM | 15.2 | CN(C(=O)c1cc(N)n2nc(-c3nccs3)nc2c1)C1CCCCC1 [Example 124, 5-Amino-2-thiazol-2-yl-[1,2,4]triazolo[1,5-a]pyridine-7-carboxylic acid cyclohexyl-methyl-amide]
22 | 255 nM | 24.4 nM | 10.5 | Nc1cc(C(=O)NC2CCc3ccccc32)cc2nc(-c3nccs3)nn12 (stereo not drawn) [Example 125, 5-Amino-2-thiazol-2-yl-[1,2,4]triazolo[1,5-a]pyridine-7-carboxylic acid indan-1-ylamide]
23 | 232 nM | 54.4 nM | 4.3 | CC(NC(=O)c1cc(N)n2nc(-c3nccs3)nc2c1)c1ccccc1 (stereo not drawn) [Example 126, 5-Amino-2-thiazol-2-yl-[1,2,4]triazolo[1,5-a]pyridine-7-carboxylic acid (1-phenyl-ethyl)-amide]
24 | 128 nM | 15.2 nM | 8.4 | COc1ccccc1CNC(=O)c1cc(N)n2nc(-c3nccs3)nc2c1 [Example 130, 5-Amino-2-thiazol-2-yl-[1,2,4]triazolo[1,5-a]pyridine-7-carboxylic acid 2-methoxy-benzylamide]
25 | 1940 nM | 146 nM | 13.3 | COc1cc(CNC(=O)c2cc(N)n3nc(-c4ccc(Br)o4)nc3c2)cc(OC)c1OC [Example 133, 5-Amino-2-(5-bromo-furan-2-yl)-[1,2,4]triazolo[1,5-a]pyridine-7-carboxylic acid 3,4,5-trimethoxy-benzylamide]
26 | 107 nM | 7.3 nM | 14.7 | Cc1ccc(-c2nc3cc(C(=O)N(C)Cc4ccccc4)cc(N)n3n2)o1 [Example 140, 5-Amino-2-(5-methyl-furan-2-yl)-[1,2,4]triazolo[1,5-a]pyridine-7-carboxylic acid benzyl-methyl-amide]
27 | 4120 nM | 281 nM | 14.6 | COc1ccc(CNC(=O)c2cc(N)n3nc(-c4ccc(C)o4)nc3c2)cc1OC [Example 142, 5-Amino-2-(5-methyl-furan-2-yl)-[1,2,4]triazolo[1,5-a]pyridine-7-carboxylic acid 3,4-dimethoxy-benzylamide]
28 | 819 nM | 63.4 nM | 12.9 | Cc1ccsc1-c1nc2cc(C(=O)N(Cc3ccccc3)C(C)C)cc(N)n2n1 [Example 144, 5-Amino-2-(3-methyl-thiophen-2-yl)-[1,2,4]triazolo[1,5-a]pyridine-7-carboxylic acid benzyl-isopropyl-amide]
29 | 106 nM | 26 nM | 4.1 | CCCCNC(=O)c1cc(N)n2nc(-c3ccccc3)nc2c1 [Example 145, 5-Amino-2-phenyl-[1,2,4]triazolo[1,5-a]pyridine-7-carboxylic acid butylamide]
30 | 1960 nM | 130 nM | 15.0 | CCN(CC)C(=O)c1cc(N)n2nc(-c3ccccc3)nc2c1 [Example 146, 5-Amino-2-phenyl-[1,2,4]triazolo[1,5-a]pyridine-7-carboxylic acid diethylamide]
